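How tested: cells in 96-well plates exposed to compound for 48 hours at five concentrations. GI50: concentration for 50% inhibition of growth. At the TGI there is no net growth.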
How the values were obtained:
Assay in all cases: NCI tumour cell line growth inhibition, 48 h
OVCAR-8 ovarian = test system: OVCAR-8 ovarian
U251 CNS = test system: U251 CNS
PC-3 prostate = test system: PC-3 prostate
UACC-257 melanoma = test system: UACC-257 melanoma
SW-620 colon = test system: SW-620 colon
HCT-116 colon = test system: HCT-116 colon
OVCAR-4 ovarian = test system: OVCAR-4 ovarian
LOX IMVI melanoma = test system: LOX IMVI melanoma

Row | SMILES | GI50 (OVCAR-8 ovarian) [µM] | TGI (OVCAR-8 ovarian) [µM] | GI50 (U251 CNS) [µM] | TGI (U251 CNS) [µM] | GI50 (PC-3 prostate) [µM] | TGI (PC-3 prostate) [µM] | GI50 (UACC-257 melanoma) [µM] | TGI (UACC-257 melanoma) [µM] | GI50 (SW-620 colon) [µM] | TGI (SW-620 colon) [µM] | GI50 (HCT-116 colon) [µM] | TGI (HCT-116 colon) [µM] | TGI (OVCAR-4 ovarian) [µM] | TGI (LOX IMVI melanoma) [µM] | GI50 (OVCAR-4 ovarian) [µM] | GI50 (LOX IMVI melanoma) [µM]
1 | CN(C)Cc1ccc(NC(=O)c2cncc(C#Cc3cnc(N)c4ncccc34)c2)cc1F | 2.31 | 5.02 | 1.93 | 3.89 | 1.74 | 3.34 | 7.31 | 26.7 | 2.23 | 4 | 1.8 | 3.48 |  |  |  | 
2 | COS(C)(=O)=O |  | > 2 |  | > 2 |  | > 2 |  | > 2 |  | > 2 |  | > 2 | > 2 | > 2 |  | 
3 | COc1ccc(S(=O)(=O)Nc2c(/C=C\c3cc(OC)c(OC)c(OC)c3)ccc(OC)c2O)cc1 | 0.0466 | > 100 | 0.0374 | > 100 | 0.0408 | > 100 |  |  | 0.0408 | > 100 | 0.032 | > 100 | > 100 | 49.1 | 0.0763 | 0.0455
4 | COc1ccc(-c2cc(-c3ccc(Cl)cc3)nc(NCCCCNc3ccnc4cc(Cl)ccc34)n2)cc1 | 1.9 | 4.28 | 11 | 23.8 |  |  | 1.96 | 4.22 | 1.76 | 3.46 | 1.5 | 2.92 | 3.49 | 3.18 | 1.72 | 1.7
5 | CS(=O)(=O)c1cccc(Nc2ncc3cc(-c4ccccc4Cl)ccc3n2)c1 | 1.44 | 32 | 1.68 | > 33.3 | 1.79 | > 33.3 | 3.24 | 19.3 | 1.78 | > 33.3 | 1.01 | 4.51 | > 33.3 | 4.54 | 1.51 | 1.06
6 | CC1=C(C(=O)Nc2ccc(F)c(Cl)c2)C(c2cccc(Oc3ccccc3)c2)NC(=S)N1 (stereo not drawn) | 11.3 | 26.9 | 9.64 | 20.2 | 11.9 | 48.2 | 13.5 | 33.5 | 16.2 | 44.2 | 14.6 | 46.8 |  | 20.2 |  | 8.77
7 | CC(=O)Nc1ccc(S(=O)(=O)N=S(C)C)cc1 |  | > 100 |  | > 100 |  | > 100 |  | > 100 |  | > 100 |  | > 100 | > 100 | > 100 |  | 
8 | CCN1C(=O)N(CC)C2C1NN=c1s/c(=C3\C(=O)N(C4CCCC4)c4ccccc43)c(=O)n12 (stereo not drawn) | 2.12 | > 100 | 1.57 | 15.6 | 1.15 | > 100 |  |  | 0.551 | > 100 |  |  |  | > 100 |  | 1.63
9 | COc1ccc(-c2cn(-c3ccc(OC)c(OC)c3)c(=O)[nH]2)cc1 |  |  | > 100 | > 100 | > 100 | > 100 |  |  | > 100 | > 100 | > 100 | > 100 | > 100 | > 100 | 75.7 | > 100
10 | Cc1nc2sc3c(N)ncnc3c2c(C)c1C | > 25 | > 25 | > 25 | > 25 | > 25 | > 25 | > 25 | > 25 | > 25 | > 25 | > 25 | > 25 | > 25 | > 25 | > 25 | > 25
11 | COc1cc([N+](=O)[O-])c(S(=O)(=O)O)cc1-n1nc(C(=O)Nc2ccccc2)n[n+]1-c1cc(S(=O)(=O)[O-])c([N+](=O)[O-])cc1OC |  | > 100 |  | > 100 |  | > 100 |  | > 100 |  | > 100 |  | > 100 | > 100 | > 100 |  | 
12 | COc1cc(-c2nc3ccccc3o2)cc(CN2CCCCC2)c1O | 11.4 | 94.3 | 1.84 | 9.54 | 0.664 | > 100 | 2.06 | 5.51 | 1.92 | 8.13 | 4.27 | 35.4 | > 71.8 |  | 9.48 | 
13 | CCN(CC)c1ccc(-c2cc(-c3cc(OC)c(OC)c(OC)c3)nc(N3CCC(O)CC3)c2C#N)cc1 | 0.441 | 7.44 | 0.398 | 1.8 | 0.713 | > 100 |  |  | 0.448 | 12.7 | 0.281 | 1.71 | > 100 | 0.172 | 0.789 | 0.0419
14 | CC(=O)Nc1cc2cc(NS(=O)(=O)c3ccc(Cl)c(Cl)c3)ccc2oc1=O |  | 31.6 |  | 45.5 |  | 51.1 |  | > 100 |  | > 100 |  | 82.2 | > 100 | 44.3 |  | 
15 | Clc1cccc(CNc2c3ccccc3nc3ccccc23)c1 | 2.41 | 8.93 | 2 | 4.56 | 1.64 | 4.65 | 1.92 | 4.25 | 1.47 | 3.91 | 1.35 | 3.41 | 7.95 | 3.08 | 2.15 | 1.53
16 | Oc1ccc(C(O)(c2ccccc2)c2ccccc2)c2ccccc12 |  |  |  | 2.91 |  | 14.2 |  | 23.7 |  | 9.64 |  | 10.7 | 20.7 | 2.62 |  | 
17 | Cc1ccc(Cl)c(NS(=O)(=O)c2ccc(-c3cnc(C4CC4)o3)cc2)c1 | 0.258 | > 58.9 | 0.142 | 26.5 | 0.077 | > 68.6 | 8.16 | 50.7 | 0.0528 | > 100 | 0.0537 | > 36.8 | 80.6 | 18.5 | 2.1 | 0.226
18 | C=C1C(=O)O[C@H]2[C@H]1CC/C(COC(=O)/C=C\C(=O)NCc1ccc(Cn3c(=O)sn(CCI)c3=O)cc1)=C\CC[C@@]1(C)O[C@@H]21 | 2.78 | 8.76 | 7.63 | 20.2 | 7.37 | 21.5 | 2.07 | 5.97 | 1.92 | 3.75 | 1.93 | 4.75 | 17.3 | 4.88 | 3.62 | 2.18

From PubChem BioAssay (NCI)
